Earlier results on eight compounds are cited in article PMC9660540 (Clinical Cancer Research, 2022).

Where two headings read alike, the source gives them in different places.

Data set [1] deals with advanced NSCLC. Particulars: in combination with carboplatin, pemetrexed, and pembrolizumab; of 6 evaluable patients; ref [47]; cited from earlier work.
The conditions of data set [2]: cited from earlier work.
For data set [3] the following is noted: phase I trials; ref [45]; cited from earlier work.
The subject of data set [4] is mCRPC. Particulars: cited from earlier work; for OS benefit: phase III clinical trials, ref [35–37].
For data set [5], the system named is renal cell carcinoma (RCC). The note with it: pretreated patients with RCC; ref [43]; cited from earlier work.

In the case of `Cc1c(C#N)cccc1-c1cc(-c2cn(Cc3cccc(C(C)(C)O)n3)nn2)nc(N)n1` [AB928], the “Patients with a PR” value in data set [1] was 3 patients.

Consider `C[S@+]([O-])CCOc1cc(N2CCN(CCn3c(=O)sc4c3nc(N)n3nc(-c5ccco5)nc43)CC2)c(F)cc1F` [EOS100850], for which the “Grade ≥3 treatment-related AEs” value in data set [2] (up to doses of 160 mg twice daily, ref [42, 45]) is “no grade ≥3 treatment-related AEs”. The “Best response of SD” value in data set [3] is given as 6 patients.

For the compound `Nc1nc(-n2cccn2)nc(-n2cccn2)c1Br` [NIR178], the “Grade ≥3 treatment-related AEs” value in data set [2] (monotherapy, at the highest doses (480 and 640 mg), ref [42, 44]) is “nausea, increased AST, ALT, and lipase levels, and pneumonitis”.

On to `CO[C@H]1C(=O)[C@]2(C)[C@@H](OC)C[C@H]3OC[C@@]3(OC(C)=O)[C@H]2[C@H](OC(=O)c2ccccc2)[C@]2(O)C[C@H](OC(=O)[C@H](O)[C@@H](NC(=O)OC(C)(C)C)c3ccccc3)C(C)=C1C2(C)C` [cabazitaxel], for which, in data set [4] (later-line mCRPC, ref [48]), the “Median PFS” value is 3.9 months.

Turning to `Cc1ccc(-c2nc(N)nc3c2nnn3Cc2cccc(CO[C@H]3CCOC3)n2)o1` [ciforadenant], the “Most common treatment-related AEs” value in data set [2] (ref [42, 43]) is “fatigue, nausea, and pruritus”. In addition, the “Patients with a PR” value in data set [5] is given as 3%. In data set [4] (mCRPC, with or without atezolizumab, of 33 patients, ref [46]), the “Patients with tumor regression” value was 5 patients.

Take atezolizumab: anti–PD-L1 antibody: the OS benefit result in data set [4] (mCRPC) was “failed to demonstrate an OS benefit”.

Take “durvalumab: human immunoglobulin G1 monoclonal antibody that inhibits binding of PD-L1 to PD-1 and CD80”: in data set [2] (durvalumab monotherapy, PACIFIC study, ref [33]), the “Grade 3−4 treatment-related events” value is recorded as 11.8%.

Turning to ipilimumab: anti–CTLA-4 antibody, in data set [4] (mCRPC), the OS benefit entry is on record as “failed to demonstrate an OS benefit”.
